Values of other authors in article PMC4132888 (Biopolymers, 2014).
Where no end group is shown, it is not given here. [ ]: non-standard residue; d: D form.

Assays:
[1] = biological target: MOR; settings: read-out: Binding MOR; ref [33]
[2] = biological target: DOR; settings: read-out: Binding DOR; ref [33]
[3] = biological target: KOR
[4] = biological target: T1, rat μ opioid receptor (MOR) (Rattus norvegicus, UniProt P33535); settings: previously reported; ref [13]
[5] = biological target: T1, rat μ opioid receptor (MOR); settings: previously reported; ref [13]; remark: listed apart in the source
[6] = biological target: T2, rat δ opioid receptor (DOR) (Rattus norvegicus, UniProt P33533); settings: previously reported; ref [13]
[7] = biological target: T2, rat δ opioid receptor (DOR); settings: previously reported; ref [13]; remark: listed apart in the source

T2 sequence (P33533 whole entry): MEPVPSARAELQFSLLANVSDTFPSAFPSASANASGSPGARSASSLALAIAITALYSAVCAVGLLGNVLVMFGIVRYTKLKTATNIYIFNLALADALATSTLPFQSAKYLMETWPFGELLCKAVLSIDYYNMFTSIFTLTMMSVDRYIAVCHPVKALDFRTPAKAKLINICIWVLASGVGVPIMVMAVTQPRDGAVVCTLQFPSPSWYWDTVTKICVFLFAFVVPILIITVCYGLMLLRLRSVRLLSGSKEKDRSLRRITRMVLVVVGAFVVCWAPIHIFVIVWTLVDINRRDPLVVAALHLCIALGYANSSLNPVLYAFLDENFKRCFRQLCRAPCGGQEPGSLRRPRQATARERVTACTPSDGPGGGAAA
T1 sequence (P33535 whole entry): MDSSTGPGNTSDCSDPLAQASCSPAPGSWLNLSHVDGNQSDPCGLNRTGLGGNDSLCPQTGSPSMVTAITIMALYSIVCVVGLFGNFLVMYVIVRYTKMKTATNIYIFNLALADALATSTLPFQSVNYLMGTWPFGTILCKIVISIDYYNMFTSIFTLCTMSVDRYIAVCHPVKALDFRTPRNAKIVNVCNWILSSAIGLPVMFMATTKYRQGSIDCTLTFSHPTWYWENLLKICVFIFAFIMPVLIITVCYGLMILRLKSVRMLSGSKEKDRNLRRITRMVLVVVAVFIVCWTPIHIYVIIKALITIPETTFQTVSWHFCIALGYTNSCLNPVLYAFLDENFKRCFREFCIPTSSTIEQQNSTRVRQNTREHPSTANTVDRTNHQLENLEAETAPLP

## Y[dT]GFLS-NH2 [DTLES]
[1]
  Ki: 1.4 ± 0.08 nM
[2]
  Ki: 4.1 ± 0.41 nM
[3]; read-out: Binding KOR, ref [33]
  Ki: 34 ± 2.2 nM

## Dmt-c(S-Et-S)[DCys-Aic-DPen]OH [KSK-103]
[4]
  Agonist activity at MOR (in words): moderate agonist activity
[5]
  Binding for MOR (in words): low nanomolar binding
[6]
  Binding for DOR (in words): low nanomolar binding
[7]
  Stimulation of DOR (in words): no stimulation

## Tyr-DThr-Gly-Phe-Leu-Ser-(O-β-D-lactose)-NH2 [MMP-2200]
[3]; ref Polt and co-workers
  KOR affinity (in words): high KOR affinity
